Assay [1] has as its system HeLa cells. The assay can be described thus: MTT cytotoxicity assay, HeLa. In kind it is cell-based, human. To be noted: for IC50: HeLa, MTT; for SI (Selectivity Index): IC50 WRL-68 / IC50 HeLa. The source says:
(§1) The human cervical cancer cell-line, HeLa (CCL-2.2; ATCC, Manassas, VA), HCT-116 (CCL-247; ATCC, Manassas, VA), A549 (CCL-185; ATCC, Manassas, VA), HepG-2 (HB-8065; ATCC, Manassas, VA) and WRL-68 (CL-48; ATCC, Manassas, VA), were obtained from American Type Culture Collection (ATCC). HeLa, A549, HepG2 and WRL68 cells were maintained in Dulbecco’s Modified Eagle Medium (DMEM, Life Technologies, Inc, Rockville, MD). HCT-116 was obtained in McCoy’s 5a Medium Modified (Life Technologies, Inc, Rockville, MD) supplemented with 10 % fetal bovine serum and 1 % penicillin/streptomycin. Cells were incubated at 37 °C in a humidified cell culture 5 % CO2 incubator. Cells were passaged until reaching 70-80-% confluency for experimental purposes.
(§2) Cytotoxicity of MBIC was estimated by MTT assay. Briefly, 1 × 10^4 cells/well were seeded in a 96-well plate and incubated at 37 °C in 5 % CO2. After 24 h, cells were treated with different concentrations (0.02, 0.04, 0.1, 0.2, 0.4, 0.8, 1.5, 3, 6, 12, 25, 50 μM) of MBIC. 0.01 % DMSO was used as vehicle control. Cells were incubated for 24 and 48 h at 37 °C. Subsequently, 50 μl/well of 3-(4,5-dimethylthiazol-2-yl)-2,5-diphenyltetrazolium bromide (MTT, 2 mg/ml) was added and incubated for 2 h. After the incubation, the media was discarded and 100 μl DMSO was replaced into each well to dissolve the formazan crystal. The colorimetric assay was quantified at 570 nm wavelength using Chameleon V microplate reader (Hidex, Turku, Finland). The anti-proliferation activity of MBIC was expressed as an IC50 value. The percentage of cell viability was calculated as described previously.
On the technique in general: Tetrazolium assays rely on reduction of a dye to a coloured formazan, in cell work by metabolically active cells.

Another assay relates to HCT-116 cells. Put plainly: MTT cytotoxicity assay, HCT-116. It is filed as cell-based, human. To be noted: for IC50: MTT.
Description: as §1, §2

Another assay concerns A549 cells. The assay can be described thus: MTT cytotoxicity assay, A549. It is filed as cell-based, human. The following applies: for IC50: MTT.
Description: as §1, §2

For another assay, the system named is HepG-2 cells. The assay can be described thus: MTT cytotoxicity assay, HepG-2. It is filed as cell-based, human. The following applies: for IC50: MTT.
Description: as §1, §2

In a further assay the test system is WRL-68 cells. The assay can be described thus: MTT cytotoxicity assay, WRL-68 normal liver cells. It is filed as cell-based, human.
Description: as §1, §2

The subject of assay [2] is HeLa cells. The assay can be described thus: Drug combination assay (MTT, Chou-Talalay, CampuSyn). In kind it is cell-based. The following applies: Homo sapiens, 24 h, drug alone, read-out: (Dm)IC50 Drug 1 (conventional drug alone). Here is the method:
In order to discover the synergistic effects of MBIC with conventional drugs briefly, cells were seeded in 1 × 10^4 cells/well and were incubated at 37 °C overnight. […] Also, the MBIC, combined with each of the selected conventional drugs in a 1:1 ratio, were diluted in concentration from 50 μM to 0.1 μM. Cell viability assay (MTT assay) was performed 24 h post-treatment and absorbance were measured in a microplate reader to find out the IC50 for each conventional drug alone and in combination with MBIC on HeLa cells. For this analysis, we used the commercial software package CampuSyn (Biosoft, Cambridge, United Kingdom; Ref.9). […] Furthermore, the software produced an automated isobologram and fraction affected-combination index (Fa-CI) plot.

In assay [3] the test system is HeLa cells expressing EGFP-α-tubulin, EGFP-CENP-A and histone H2B-mCherry. The assay can be described thus: Live-cell imaging of mitotic spindle. It is filed as cell-based, human. To be noted: MBIC 10 μM, nocodazole 2 μM; imaged at 15 min intervals. As for the experimental part:
HeLa cells expressing EGFP-α-tubulin, EGFP-CENP-A and histone H2B-mCherry were grown in glass chambers (Thermo Scientific, USA). Thirty minutes before imaging, the medium was changed to pre-warmed Leibovitz’s L-15 medium (Life Technologies) supplemented with 20 % fetal bovine serum and 20 mM HEPES, pH 7.0. Recordings were made in a temperature-controlled incubator at 37 °C. Images were collected with an Olympus IX-71 inverted microscope (Olympus) controlled by DeltaVision softWoRx (Applied Precision) using a 20x 0.75 NA UPlan SApochromat objective lens (Olympus). Z-series of six sections in 3 μm increments were captured every 15 min. Image stacks were projected.

Another assay concerns the target T1, tubulin (Sus scrofa, UniProt P02550+P02554).
T1 construct: purchased Cytoskeleton BK011P
Put plainly: Tubulin polymerization assay. In kind it is biochemical. To be noted: 10 μM drug, 3 mg/ml tubulin, 37 °C, 340 nm; untreated 12 mOD/min. Here is the method:
To investigate the effect of MBIC on tubulin polymerization, a fluorescence-based tubulin polymerization assay kit (Cytoskeleton-Cat. # BK011P) was used according to the manufacturer’s protocol. Briefly, 200 μl of pure tubulin protein was re-suspended in 420 μl of ice cold Tubulin Polymerization Buffer (TPB) to give a final concentration of 3 mg/ml tubulin, supplemented with 80 mM PIPES, 2 mM MgCl2, 0.5 mM EGTA, 1 mM GTP, 20 % (v/v) glycerol. 100 μl of tubulin reaction mixture were added to each well in a 96-well plate containing the selected concentration of MBIC (10 μM). […] Samples were mixed well and the tubulin assembly was monitored by an increase in fluorescence emission at 340 nm in kinetic mode for 120 min at 37 °C using a plate reader (Infinite® 200 PRO—Tecan plate reader, USA).

The mark [4] stands for this setting: IC50 WRL-68 / IC50 HCT-116, 24 hours.
[5] abbreviates: IC50 WRL-68 / IC50 HCT-116, 48 hours.
Where [6] appears, read: IC50 WRL-68 / IC50 A549, 24 hours.
[7] abbreviates: IC50 WRL-68 / IC50 A549, 48 hours.
Setting [8] is: IC50 WRL-68 / IC50 HepG-2, 24 hours.
[9] abbreviates: IC50 WRL-68 / IC50 HepG-2, 48 hours.
The mark [10] stands for this setting: Homo sapiens, HCT-116, 24 hours.
Setting [11] is: Homo sapiens, HCT-116, 48 hours.
The mark [12] stands for this setting: Homo sapiens, HepG2, HepG-2, 24 hours.
The mark [13] stands for this setting: Homo sapiens, HepG2, HepG-2, 48 hours.

In general, IC50 refers to the concentration needed to halve the response being measured.

Molecules are shown by their SMILES.

T1 sequence (P02550 whole entry): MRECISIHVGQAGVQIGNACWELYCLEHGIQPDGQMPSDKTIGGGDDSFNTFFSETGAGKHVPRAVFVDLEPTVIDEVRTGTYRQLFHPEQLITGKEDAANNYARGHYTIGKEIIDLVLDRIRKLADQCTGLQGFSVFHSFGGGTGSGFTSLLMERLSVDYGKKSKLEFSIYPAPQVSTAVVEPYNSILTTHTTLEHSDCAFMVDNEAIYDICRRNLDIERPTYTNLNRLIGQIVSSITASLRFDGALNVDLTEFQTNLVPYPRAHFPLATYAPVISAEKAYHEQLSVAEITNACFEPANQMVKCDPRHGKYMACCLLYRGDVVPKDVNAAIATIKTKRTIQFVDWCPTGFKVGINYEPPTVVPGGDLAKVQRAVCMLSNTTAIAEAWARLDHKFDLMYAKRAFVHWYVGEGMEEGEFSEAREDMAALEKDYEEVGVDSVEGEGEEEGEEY
T1 sequence (P02554 whole entry): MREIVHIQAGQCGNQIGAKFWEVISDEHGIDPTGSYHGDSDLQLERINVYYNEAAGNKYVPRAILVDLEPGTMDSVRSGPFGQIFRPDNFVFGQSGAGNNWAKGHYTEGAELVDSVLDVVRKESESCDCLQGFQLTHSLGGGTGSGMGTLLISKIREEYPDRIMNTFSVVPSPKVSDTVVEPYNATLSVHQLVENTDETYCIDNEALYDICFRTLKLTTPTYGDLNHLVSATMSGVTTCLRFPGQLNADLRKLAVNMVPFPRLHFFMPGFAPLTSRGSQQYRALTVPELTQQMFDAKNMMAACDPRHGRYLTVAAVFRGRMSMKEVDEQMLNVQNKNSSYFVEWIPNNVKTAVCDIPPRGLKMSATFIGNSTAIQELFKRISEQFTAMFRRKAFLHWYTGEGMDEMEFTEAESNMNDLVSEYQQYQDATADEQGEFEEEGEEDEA

As to `N.N.[Cl][Pt][Cl]` [Cisplatin], the IC50 in the assay with HeLa cells [1] (24 hours) was 15.07 ± 0.03 µM; with HeLa cells [1] (48 hours), 9.02 ± 0.02 µM; with HCT-116 cells (HCT-116, 24 hours), 7.22 ± 0.5 µM; with HCT-116 cells (HCT-116, 48 hours) it was 4.12 ± 0.6 µM; in the assay on A549 cells (A549, 24 hours), 34 ± 0.9 µM; in the assay with A549 cells (A549, 48 hours), 19.5 ± 1.4 µM. Further, the IC50 with HepG-2 cells (HepG-2, 24 hours) stood at 10.3 ± 0.5 µM; in the assay with HepG-2 cells (HepG-2, 48 hours), 5.93 ± 0.2 µM; with WRL-68 cells (24 hours), 18.6 ± 1.4 µM; with WRL-68 cells (48 hours), 10.6 ± 0.7 µM. Moreover, the “SI (Selectivity Index)” value came to 1.23 in the assay with HeLa cells [1] (24 hours); 1.17 with HeLa cells [1] (48 hours); 2.57 in the assay on HCT-116 cells (setting [4]); 2.56 in the assay with HCT-116 cells (setting [5]); 0.54 in the assay with A549 cells (setting [6]); 0.54 in the assay on A549 cells (setting [7]). For the same compound, the “SI (Selectivity Index)” value in the assay on HepG-2 cells (setting [8]) was found to be 1.80; in the assay with HepG-2 cells (setting [9]), 1.78.

On to `COc1cccc2c1C(=O)c1c(O)c3c(c(O)c1C2=O)C[C@@](O)(C(=O)CO)C[C@@H]3O[C@H]1C[C@H](N)[C@H](O)[C@H](C)O1` [Doxorubicin], for which the IC50 came to 0.46 ± 0.04 µM in the assay on HeLa cells [1] (Homo sapiens, 24 hours); 0.29 ± 0.04 µM in the assay on HeLa cells [1] (Homo sapiens, 48 hours); 0.91 ± 0.2 µM with HCT-116 cells (setting [10]); 0.47 ± 0.3 µM with HCT-116 cells (setting [11]); 0.35 ± 0.07 µM with A549 cells (Homo sapiens, A549, 24 hours); 0.09 ± 0.01 µM in the assay on A549 cells (Homo sapiens, A549, 48 hours). Further, the IC50 in the assay with HepG-2 cells (setting [12]) is 8.04 ± 0.8 µM; with HepG-2 cells (setting [13]), 3.94 ± 0.07 µM; in the assay with WRL-68 cells (Homo sapiens, WRL68, 24 hours), 3.56 ± 0.9 µM; in the assay on WRL-68 cells (Homo sapiens, WRL68, 48 hours) it was 1.68 ± 0.09 µM; with HeLa cells [2] it was 0.46 ± 0.7 µM. Further, the “SI (Selectivity Index)” value amounted to 7.73 in the assay with HeLa cells [1] (24 hours); 5.79 in the assay with HeLa cells [1] (48 hours); 3.91 in the assay with HCT-116 cells (setting [4]); 3.57 with HCT-116 cells (setting [5]); 10.17 with A549 cells (setting [6]); 18.66 with A549 cells (setting [7]). For the same compound, the “SI (Selectivity Index)” value with HepG-2 cells (setting [8]) is recorded as 0.44; with HepG-2 cells (setting [9]), 0.42.

For the compound `COC(=O)Nc1nc2ccc(C(=O)c3cccs3)cc2[nH]1` [Nocodazole], the IC50 in the assay on HeLa cells [1] (Homo sapiens, 24 hours) is 3.08 ± 0.02 µM; in the assay with HeLa cells [1] (Homo sapiens, 48 hours), 2.22 ± 0.04 µM; in the assay on HCT-116 cells (setting [10]) it was 3.81 ± 0.6 µM; with HCT-116 cells (setting [11]), 1.81 ± 0.3 µM; in the assay with A549 cells (Homo sapiens, A549, 24 hours) it was 12.2 ± 0.2 µM; in the assay on A549 cells (Homo sapiens, A549, 48 hours), 5.09 ± 0.5 µM. Moreover, the IC50 in the assay on HepG-2 cells (setting [12]) stood at 10.7 ± 0.5 µM; with HepG-2 cells (setting [13]), 5.08 ± 0.3 µM; with WRL-68 cells (Homo sapiens, WRL68, 24 hours), 12.2 ± 0.9 µM; in the assay on WRL-68 cells (Homo sapiens, WRL68, 48 hours) it was 7.56 ± 0.3 µM; in the assay with HeLa cells [2] it was 3.08 ± 0.5 µM. Further, the “SI (Selectivity Index)” value in the assay with HeLa cells [1] (24 hours) was determined as 3.97; in the assay with HeLa cells [1] (48 hours) it was 3.40; in the assay on HCT-116 cells (setting [4]), 3.20; in the assay with HCT-116 cells (setting [5]) it was 4.17; in the assay on A549 cells (setting [6]), 1.00; with A549 cells (setting [7]), 1.48. The “SI (Selectivity Index)” value with HepG-2 cells (setting [8]) stood at 1.14; with HepG-2 cells (setting [9]), 1.48. Besides, the “mitotic spindle formation in live-cell imaging” value in assay [3] is “did not form the spindle”. Besides, the “Tubulin polymerization maximal velocity (Vmax)” value on tubulin is 3 mOD/min.

Regarding `CC(=O)O[C@H]1C(=O)[C@@]2(C)[C@H]([C@H](OC(=O)c3ccccc3)[C@]3(O)C[C@H](OC(=O)[C@H](O)[C@@H](NC(=O)c4ccccc4)c4ccccc4)C(C)=C1C3(C)C)[C@]1(OC(C)=O)CO[C@@H]1C[C@@H]2O` [Paclitaxel], the 50% inhibitory concentration (IC50) in the assay on HeLa cells [1] (Homo sapiens, 24 hours) was 1.02 ± 0.01 µM; in the assay on HeLa cells [1] (Homo sapiens, 48 hours), 0.57 ± 0.03 µM; in the assay on HCT-116 cells (setting [10]), 3.09 ± 0.5 µM; in the assay with HCT-116 cells (setting [11]) it was 1.09 ± 0.4 µM; with A549 cells (Homo sapiens, A549, 24 hours), 2.83 ± 0.11 µM; with A549 cells (Homo sapiens, A549, 48 hours), 1.23 ± 0.09 µM. Moreover, the IC50 with HepG-2 cells (setting [12]) is 2.81 ± 0.72 µM; in the assay with HepG-2 cells (setting [13]), 1.03 ± 0.07 µM; in the assay with WRL-68 cells (Homo sapiens, WRL68, 24 hours), 6.71 ± 0.2 µM; in the assay on WRL-68 cells (Homo sapiens, WRL68, 48 hours), 3.41 ± 0.8 µM; with HeLa cells [2], 1.02 ± 0.6 µM. Also, the “SI (Selectivity Index)” value with HeLa cells [1] (24 hours) came out at 6.57; in the assay on HeLa cells [1] (48 hours), 5.98; in the assay on HCT-116 cells (setting [4]), 2.17; in the assay on HCT-116 cells (setting [5]), 3.12; in the assay on A549 cells (setting [6]), 2.37; with A549 cells (setting [7]) it was 2.77. Further, the “SI (Selectivity Index)” value is reported as 2.38 in the assay on HepG-2 cells (setting [8]) and 3.31 in the assay with HepG-2 cells (setting [9]). In addition, the “Tubulin polymerization maximal velocity (Vmax)” value at tubulin was determined as 33 mOD/min.

Values taken from paper PMC4815073, “Targeting of tubulin polymerization and induction of mitotic blockage by Methyl 2-(5-fluoro-2-hydroxyphenyl)-1H-benzo[d]imidazole-5-carboxylate (MBIC) in human cervical cancer HeLa cell” (Journal of Experimental & Clinical Cancer Research : CR, 2016).
